One assay addresses KRas G12C (Homo sapiens, UniProt P01116, C118S/C51S/C80L/G12C). In words: KRas G12C Modification Assay (LCMS detection of covalent adduct). The class given is binding. To be noted: normalized percent of control; tested at 5 μM concentration for 3 hours. The method, boiled down:
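Covalent modification was read by reverse-phase LC/MS of intact protein after compound exposure, each reaction stopped at its time point with 25 mM acetic acid. Unmodified-protein signal, taken as percent of total, was normalised to untreated protein and reported as POC.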

Assay [1] relates to NCI-H358 cells (express KRas G12C), Phospho-ERK. Briefly: Cellular inhibition of KRas G12C: Phospho-ERK in NCI-H358 cells. In kind it is cell-based. To be noted: pERK(Thr202/Tyr204) normalized with GAPDH, NCI-H358 cells, 3 hours, read-out: IC50. The method, boiled down: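 IC50 derived by 4-parameter fit of GAPDH-normalized pERK(Thr202/Tyr204) signal, as percent of DMSO control. Signal came from in-cell immunodetection with infrared secondaries after 3 h compound exposure of KRas G12C NCI-H358 cells at 0.5% DMSO.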

Read-outs that look alike come from different tables or passages of the source. Where only a bound is given, the exact number is not on record here.

Usually IC50 stands for the midpoint of a concentration-inhibition curve.

For the compound `C=CC(=O)N1CCN(c2nc(OC[C@@H]3CCCN3C)nc3c2CCN(c2nncc4ccccc24)C3)C[C@@H]1CC#N` [Example 430, 2-((S)-1-acryloyl-4-(2-(((S)-1-methylpyrrolidin-2-yl)methoxy)-7-(phthalazin-1-yl)-5,6,7,8-tetrahydropyrido[3,4-d]pyrimidin-4-yl)piperazin-2-yl)acetonitrile], on KRas G12C, the POC result is “C (“C”>50% POC)”. The IC50 in assay [1] (Homo sapiens, NCI-H358, 3 h) is over 1000 nM.
For `C=CC(=O)N1CCN(c2nc(OC[C@H]3CCCCN3C)nc3c2CCN(c2cccc4ccccc24)C3)C[C@@H]1CC#N` [Example 431, 2-((S)-1-acryloyl-4-(2-(((R)-1-methylpiperidin-2-yl)methoxy)-7-(naphthalen-1-yl)-5,6,7,8-tetrahydropyrido[3,4-d]pyrimidin-4-yl)piperazin-2-yl)acetonitrile], at KRas G12C, the POC entry is reported as “C (“C”>50% POC)”. For the same compound, the IC50 in assay [1] (Homo sapiens, NCI-H358, 3 h) was in the range of 0.1 to 1000 nM.
For `C=CC(=O)N1CCN(c2nc(OC[C@@H]3CCCN3C)nc3c2CCN(c2cccc4ccccc24)C3)C[C@@H]1CCOC` [Example 432, 1-((S)-2-(2-methoxyethyl)-4-(2-(((S)-1-methylpyrrolidin-2-yl)methoxy)-7-(naphthalen-1-yl)-5,6,7,8-tetrahydropyrido[3,4-d]pyrimidin-4-yl)piperazin-1-yl)prop-2-en-1-one] the same measures were “C (“C”>50% POC)” and over 1000 nM.
With `C=CC(=O)N1CCN(c2nc(OC[C@@H]3CCCN3C)nc3c2CCN(c2cccc4cccc(C(F)(F)F)c24)C3)C[C@@H]1CC#N` [Example 433, 2-((S)-1-acryloyl-4-(2-(((S)-1-methylpyrrolidin-2-yl)methoxy)-7-(8-(trifluoromethyl)naphthalen-1-yl)-5,6,7,8-tetrahydropyrido[3,4-d]pyrimidin-4-yl)piperazin-2-yl)acetonitrile], on KRas G12C, the POC entry is on record as “C (“C”>50% POC)”. In addition, in assay [1] (Homo sapiens, NCI-H358, 3 h), the IC50 is 0.1 to 1000 nM.
With `C=CC(=O)N1CCN(c2nc(OC[C@@H]3CCCN3C)nc3c2CCN(c2cccc4ccn(C)c24)C3)C[C@@H]1CC#N` [Example 434, 2-((S)-1-acryloyl-4-(7-(1-methyl-1H-indol-7-yl)-2-(((S)-1-methylpyrrolidin-2-yl)methoxy)-5,6,7,8-tetrahydropyrido[3,4-d]pyrimidin-4-yl)piperazin-2-yl)acetonitrile], the POC result on KRas G12C is recorded as “C (“C”>50% POC)”. Moreover, in assay [1] (Homo sapiens, NCI-H358, 3 h), the IC50 lay within 0.1 to 1000 nM.
`C=CC(=O)N1CCN(c2nc(OC[C@@H]3C[C@@H](F)CN3C)nc3c2CCN(c2cccc(C)c2C)C3)C[C@@H]1CC#N` [Example 435, 2-((S)-1-acryloyl-4-(7-(2,3-dimethylphenyl)-2-(((2S,4R)-4-fluoro-1-methylpyrrolidin-2-yl)methoxy)-5,6,7,8-tetrahydropyrido[3,4-d]pyrimidin-4-yl)piperazin-2-yl)acetonitrile]: on KRas G12C, the POC entry was “C (“C”>50% POC)”. Moreover, the IC50 in assay [1] (Homo sapiens, NCI-H358, 3 h) fell in the range of 0.1 to 1000 nM.
On to `Cc1cccc(N2CCc3c(nc(OC[C@@H]4C[C@@H](F)CN4C)nc3N3CCN(C(=O)/C=C/CN(C)C)[C@@H](CC#N)C3)C2)c1C` [Example 436, 2-((S)-1-((E)-4-(dimethylamino)but-2-enoyl)-4-(7-(2,3-dimethylphenyl)-2-(((2S,4R)-4-fluoro-1-methylpyrrolidin-2-yl)methoxy)-5,6,7,8-tetrahydropyrido[3,4-d]pyrimidin-4-yl)piperazin-2-yl)acetonitrile], for which the POC entry on KRas G12C is recorded as “C (“C”>50% POC)”. For the same compound, the IC50 in assay [1] (Homo sapiens) was in the range of 0.1 to 1000 nM.
With `C=CC(=O)N1CCN(c2nc(OC[C@@H]3CCCN3C)nc3c2CCN(c2cccc4ccccc24)C3)C(CC#N)C1` (stereo partly drawn) [Example 437, 2-(4-acryloyl-1-(2-(((S)-1-methylpyrrolidin-2-yl)methoxy)-7-(naphthalen-1-yl)-5,6,7,8-tetrahydropyrido[3,4-d]pyrimidin-4-yl)piperazin-2-yl)acetonitrile], on KRas G12C, the POC entry is given as “C (“C”>50% POC)”. The IC50 in assay [1] (Homo sapiens, NCI-H358, 3 h) was over 1000 nM.
On the same counts, the results for `C=CC(=O)N1CCN(c2nc(OC[C@@H]3[C@H](F)CCN3C)nc3c2CCN(c2cccc4ccccc24)C3)C[C@@H]1CC#N` [Example 438, 2-((S)-1-acryloyl-4-(2-(((2R,3R)-3-fluoro-1-methylpyrrolidin-2-yl)methoxy)-7-(naphthalen-1-yl)-5,6,7,8-tetrahydropyrido[3,4-d]pyrimidin-4-yl)piperazin-2-yl)acetonitrile] are “C (“C”>50% POC)” and 0.1 to 1000 nM.
On the same counts, the results for `C=CC(=O)N1CCN(c2nc(OC[C@@H]3CCCN3C)nc3c2CCN(c2cccc4cccn24)C3)C[C@@H]1CC#N` [Example 440, 2-((S)-1-acryloyl-4-(7-(indolizin-5-yl)-2-(((S)-1-methylpyrrolidin-2-yl)methoxy)-5,6,7,8-tetrahydropyrido[3,4-d]pyrimidin-4-yl)piperazin-2-yl)acetonitrile] are “C (“C”>50% POC)” and 0.1 to 1000 nM.
As to `C=CC(=O)N1CCN(c2nc(OC[C@@H]3CN(C)CCO3)nc3c2CCN(c2cccc4ccccc24)C3)CC1CC#N` (stereo partly drawn) [Example 442, 2-(1-Acryloyl-4-(2-(((S)-4-methylmorpholin-2-yl)methoxy)-7-(naphthalen-1-yl)-5,6,7,8-tetrahydropyrido[3,4-d]pyrimidin-4-yl)piperazin-2-yl)acetonitrile], the POC result on KRas G12C is “C (“C”>50% POC)”. Besides, in assay [1], the IC50 was 0.1 to 1000 nM.
For `C=CC(=O)N1CCN(c2nc(OC[C@@H]3COCCN3C)nc3c2CCN(c2cccc4ccccc24)C3)CC1CC#N` (stereo partly drawn) [Example 443, 2-(1-Acryloyl-4-(2-(((S)-4-methylmorpholin-3-yl)methoxy)-7-(naphthalen-1-yl)-5,6,7,8-tetrahydropyrido[3,4-d]pyrimidin-4-yl)piperazin-2-yl)acetonitrile] the same measures were “C (“C”>50% POC)” and 0.1 to 1000 nM.
For `C=CC(=O)N1CCN(c2nc(OC[C@H]3COCCN3C)nc3c2CCN(c2cccc4ccccc24)C3)CC1CC#N` (stereo partly drawn) [Example 444, 2-(1-Acryloyl-4-(2-(((R)-4-methylmorpholin-3-yl)methoxy)-7-(naphthalen-1-yl)-5,6,7,8-tetrahydropyrido[3,4-d]pyrimidin-4-yl)piperazin-2-yl)acetonitrile] the same measures were “C (“C”>50% POC)” and over 1000 nM.
`C=CC(=O)N1CCN(c2nc(OC[C@@H]3CC(F)(F)CN3C)nc3c2CCN(c2cccc4ccccc24)C3)C[C@@H]1CC#N` [Example 445, 2-((S)-1-Acryloyl-4-(2-(((S)-4,4-difluoro-1-methylpyrrolidin-2-yl)methoxy)-7-(naphthalen-1-yl)-5,6,7,8-tetrahydropyrido[3,4-d]pyrimidin-4-yl)piperazin-2-yl)acetonitrile]: the POC result at KRas G12C is recorded as “C (“C”>50% POC)”. The IC50 in assay [1] (Homo sapiens, NCI-H358, 3 h) was 0.1 to 1000 nM.
`C=CC(=O)N1CCN(c2nc(OC[C@H]3CN(C)C4(CC4)CO3)nc3c2CCN(c2cccc4ccccc24)C3)C[C@@H]1CC#N` [Example 446, 2-((S)-1-Acryloyl-4-(2-(((R)-4-methyl-7-oxa-4-azaspiro[2.5]octan-6-yl)methoxy)-7-(naphthalen-1-yl)-5,6,7,8-tetrahydropyrido[3,4-d]pyrimidin-4-yl)piperazin-2-yl)acetonitrile]: on KRas G12C, the POC result is reported as “C (“C”>50% POC)”. Besides, the IC50 in assay [1] (Homo sapiens, NCI-H358, 3 h) lay within 0.1 to 1000 nM.
On the same counts, the results for `C=CC(=O)N1CCN(c2nc(OC[C@@H]3CCCN3C)nc3c2CCN(c2ccccc2C(F)F)C3)CC1CC#N` (stereo partly drawn) [Example 447, 2-(1-Acryloyl-4-(7-(2-(difluoromethyl)phenyl)-2-(((S)-1-methylpyrrolidin-2-yl)methoxy)-5,6,7,8-tetrahydropyrido[3,4-d]pyrimidin-4-yl)piperazin-2-yl)acetonitrile] are “C (“C”>50% POC)” and 0.1 to 1000 nM.
On to `C=CC(=O)N1CCN(c2nc(OC[C@H]3CN(C)CCO3)nc3c2CCN(c2cccc4ccccc24)C3)C[C@@H]1CC#N` [Example 448, 2-((S)-1-Acryloyl-4-(2-(((R)-4-methylmorpholin-2-yl)methoxy)-7-(naphthalen-1-yl)-5,6,7,8-tetrahydropyrido[3,4-d]pyrimidin-4-yl)piperazin-2-yl)acetonitrile], for which the POC result at KRas G12C was “C (“C”>50% POC)”. Moreover, the IC50 in assay [1] (Homo sapiens, NCI-H358, 3 h) lay within 0.1 to 1000 nM.
For `C=CC(=O)N1CCN(c2nc(OC[C@H]3CN(C)C(C)(C)CO3)nc3c2CCN(c2cccc4ccccc24)C3)C[C@@H]1CC#N` [Example 450, 2-((S)-1-Acryloyl-4-(7-(naphthalen-1-yl)-2-(((R)-4,5,5-trimethylmorpholin-2-yl)methoxy)-5,6,7,8-tetrahydropyrido[3,4-d]pyrimidin-4-yl)piperazin-2-yl)acetonitrile] the same measures were “C (“C”>50% POC)” and 0.1 to 1000 nM.
On the same counts, the results for `C=CC(=O)N1CCN(c2nc(OC[C@@H]3CCCN3C)nc3c2CCN(c2c(C)c(C)cc4[nH]ncc24)C3)CC1` [Example 451, 1-[4-[7-(5,6-dimethyl-1H-indazol-4-yl)-2-[[(2S)-1-methylpyrrolidin-2-yl]methoxy]-6,8-dihydro-5H-pyrido[3,4-d]pyrimidin-4-yl]piperazin-1-yl]prop-2-en-1-one] are “C (“C”>50% POC)” and 0.1 to 1000 nM.
On the same counts, the results for `C=CC(=O)N1CCN(c2nc(OCCN3CCC(F)(F)CC3)nc3c2CCN(c2cccc4cccc(Cl)c24)C3)C[C@@H]1CC#N` [Example 452, 2-[(2S)-4-[7-(8-chloro-1-naphthyl)-2-[2-(4,4-difluoro-1-piperidyl)ethoxy]-6,8-dihydro-5H-pyrido[3,4-d]pyrimidin-4-yl]-1-prop-2-enoyl-piperazin-2-yl]acetonitrile] are “C (“C”>50% POC)” and 0.1 to 1000 nM.

(Values after patent US10125134B2 (Mirati Therapeutics, Inc., priority 2016, dated 2018).)
